According to patent EP2457593A1, “Cyclic RGD peptides of amino acids based on thiazoles or oxazoles as selective antagonists of the alpha-v beta-3 integrin” (Lykera Biomed S.A., priority 2010, dated 2012):
pEC50: −log10 of the molar value.

Key:
HT-29 (αvβ5) = experiment: Cell adhesion inhibition, vitronectin (VN) as ligand, HT-29; type: cell-based, human; conditions: for pEC50: VN ligand, HT-29, coating 4.0 µg/ml, read-out: Adhesion inhibition - EC-50; for blocking activity against αvβ5: HT29-VN cell system
Experimental: (§1) Biological experiments. Cells were grown in DMEM High Glucose (GIBCO, Ref: 31966), supplemented with 10% FCS (GIBCO, 10106-169) at 37°C and 5% CO2. Cells were expanded when they reached 90% confluence. Non-tissue culture treated ELISA plates were coated at 4°C with the appropriate concentration of the ligand (depending on the cell line). The coating solution was discarded and the wells were blocked with blocking solution (1.5% BSA; 60 minutes at 37°C). The blocking solution was discarded by flicking and serial dilutions of the compounds were plated in duplicates. Immediately, harvested cells were plated at a given concentration (20000-25000 /well for HUVEC and DAOY and 50000 for HT-29) to the same plate. Plates were incubated for 60-90 min at 37°C to allow cell adhesion and spreading on the ligands. Plates were washed three times with PBS and 100 µl/well of Hexosaminidase Substrate solution was added. Plates were incubated at 37°C during 3 hours and then stop solution was added. Adsorption was read at OD 405nm.
(§2) Each plate contains positive and negative controls and peptides were tested as duplicates. Each assay has been repeated at least twice and the adhesion inhibition EC50 was calculated, when possible, using the Prism-4 software based on the sigmoidal dose-response (variable slope) equation.
(§3) The different RDG derivates based on thiazole-amino acid structures were tested for their biological activity such as inhibition of cell adhesion using three different cell systems and three integrin ligands for each cell line (vitronectin (VN), fibrinogen (FB) and fibronectin (FN) and collagen (COL)). The cell lines used for the study were: DAOY human […] cells and HUVEC human umbilical vein endothelial cells as primary cell culture, which overexpresses in both members, αvβ3 and αvβ5, of the αv-integrin family, and HT29 human colon adenocarcinoma, which overexpresses in both members, αvβ5 and αvβ6, of the αv-integrin family.
(§4) In the experiments using VN as integrin ligand, both HUVEC and DAOY cells use αvβ3 and αvβ5 to adhere to VN; while HT29 cells use only αvβ5 to adhere to VN. In contrast, in the experiments using FB as integrin ligands, both HUVEC and DAOY cells use αvβ3 to adhere to FB, and the experiments using FN and COL were to control that the compounds could no inhibit the independent cell adhesion.

HUVEC (αvβ3/αvβ5) = experiment: Cell adhesion inhibition, vitronectin (VN) as ligand, HUVEC; type: cell-based, human; conditions: coating 0.75 µg/ml, read-out: Adhesion inhibition - EC-50
Experimental: as §1, §2, §3, §4

HUVEC cell line [1] = experiment: Cell adhesion inhibition, collagen (COL) as ligand (αv-integrin independent control), HUVEC; type: cell-based, human
Experimental: (§5) Figure 1. […] A) Using vitronectin (VN) as ligand. B) Using fibrinogen (FB) as ligand. Figure 2. […] Figure 3. […] A) Using fibronectin (FN) as ligand. B) Using collagen (COL) as ligand.
as §1, with “Plates were washed three times with PBS and 100 µl/well of Hexosaminidase Substrate solution was added. Plates were incubated at 37°C during 3 hours and then stop solution was added.” left out
(§6) Each plate contains positive and negative controls and peptides were tested as duplicates. Each assay has been repeated at least twice and the adhesion inhibition EC50 was calculated, when possible, using the Prism-4 software based on the sigmoidal dose-response (variable slope) equation. […]

DAOY (αvβ3) = experiment: Cell adhesion inhibition, fibrinogen (FB) as ligand, DAOY; type: cell-based, human; conditions: coating 5.0 µg/ml, read-out: Adhesion inhibition - EC-50
Experimental: as §1, §2
as §3, with “family. […]” for “family.”

HUVEC cell line [2] = experiment: Cell adhesion inhibition, fibronectin (FN) as ligand (αv-integrin independent control), HUVEC; type: cell-based, human
Experimental: as §5
as §1, with “Plates were washed three times with PBS and 100 µl/well of Hexosaminidase Substrate solution was added. Plates were incubated at 37°C during 3 hours and then stop solution was added.” left out
as §6

DAOY (αvβ3 /αvβ5) = experiment: Cell adhesion inhibition, vitronectin (VN) as ligand, DAOY; type: cell-based, human; conditions: coating 0.5 µg/ml, read-out: Adhesion inhibition - EC-50
Experimental: as §1, §2
as §3, with “family. […]” for “family.”

HUVEC cell line [3] = experiment: Inhibition of cell adhesion, first series of experiments, HUVEC cell line (ligand not specified); type: cell-based, human; conditions: for biological activity (inhibition of cell adhesion), in words: HUVEC cell line, first series of experiments
Experimental: as §1, §2, §3
In the first series of experiments compounds 1-5 were tested using HUVEC cell line showing that only compounds 4 and 5 were active.

HUVEC (αvβ3) = HUVEC (αvβ3) (Homo sapiens, UniProt P05106+P06756); experiment: Cell adhesion inhibition, fibrinogen (FB) as ligand, HUVEC; type: cell-based; conditions: from adhesion of the HUVEC and DAOY cells to FB
HUVEC (αvβ3), sequence (P06756 31-1048): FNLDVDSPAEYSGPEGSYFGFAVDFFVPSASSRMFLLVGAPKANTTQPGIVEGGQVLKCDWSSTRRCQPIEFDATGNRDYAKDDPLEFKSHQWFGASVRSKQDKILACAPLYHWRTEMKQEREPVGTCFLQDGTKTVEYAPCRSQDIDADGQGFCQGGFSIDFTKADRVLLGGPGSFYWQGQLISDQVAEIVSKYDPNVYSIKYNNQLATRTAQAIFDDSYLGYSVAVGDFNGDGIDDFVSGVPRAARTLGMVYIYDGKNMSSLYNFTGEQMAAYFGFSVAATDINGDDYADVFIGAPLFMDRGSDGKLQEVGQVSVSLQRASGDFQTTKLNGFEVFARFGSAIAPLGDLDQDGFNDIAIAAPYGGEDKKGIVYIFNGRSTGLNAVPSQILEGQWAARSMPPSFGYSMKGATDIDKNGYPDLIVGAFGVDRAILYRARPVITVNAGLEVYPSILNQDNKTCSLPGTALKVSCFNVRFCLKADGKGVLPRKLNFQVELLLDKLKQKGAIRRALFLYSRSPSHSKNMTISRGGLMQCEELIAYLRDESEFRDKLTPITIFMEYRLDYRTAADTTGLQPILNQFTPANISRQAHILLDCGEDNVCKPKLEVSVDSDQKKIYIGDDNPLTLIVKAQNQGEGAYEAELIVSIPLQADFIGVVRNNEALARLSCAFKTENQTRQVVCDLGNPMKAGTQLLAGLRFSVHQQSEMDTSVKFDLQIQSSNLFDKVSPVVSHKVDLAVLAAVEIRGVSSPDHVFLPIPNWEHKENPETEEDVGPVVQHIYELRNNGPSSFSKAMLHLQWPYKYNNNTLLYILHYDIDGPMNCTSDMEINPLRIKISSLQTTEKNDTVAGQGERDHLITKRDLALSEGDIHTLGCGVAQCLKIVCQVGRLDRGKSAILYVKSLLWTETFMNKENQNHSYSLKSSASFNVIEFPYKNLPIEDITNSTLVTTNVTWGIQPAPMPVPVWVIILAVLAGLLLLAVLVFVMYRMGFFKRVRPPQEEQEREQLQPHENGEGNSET
HUVEC (αvβ3), sequence (P05106 27-788): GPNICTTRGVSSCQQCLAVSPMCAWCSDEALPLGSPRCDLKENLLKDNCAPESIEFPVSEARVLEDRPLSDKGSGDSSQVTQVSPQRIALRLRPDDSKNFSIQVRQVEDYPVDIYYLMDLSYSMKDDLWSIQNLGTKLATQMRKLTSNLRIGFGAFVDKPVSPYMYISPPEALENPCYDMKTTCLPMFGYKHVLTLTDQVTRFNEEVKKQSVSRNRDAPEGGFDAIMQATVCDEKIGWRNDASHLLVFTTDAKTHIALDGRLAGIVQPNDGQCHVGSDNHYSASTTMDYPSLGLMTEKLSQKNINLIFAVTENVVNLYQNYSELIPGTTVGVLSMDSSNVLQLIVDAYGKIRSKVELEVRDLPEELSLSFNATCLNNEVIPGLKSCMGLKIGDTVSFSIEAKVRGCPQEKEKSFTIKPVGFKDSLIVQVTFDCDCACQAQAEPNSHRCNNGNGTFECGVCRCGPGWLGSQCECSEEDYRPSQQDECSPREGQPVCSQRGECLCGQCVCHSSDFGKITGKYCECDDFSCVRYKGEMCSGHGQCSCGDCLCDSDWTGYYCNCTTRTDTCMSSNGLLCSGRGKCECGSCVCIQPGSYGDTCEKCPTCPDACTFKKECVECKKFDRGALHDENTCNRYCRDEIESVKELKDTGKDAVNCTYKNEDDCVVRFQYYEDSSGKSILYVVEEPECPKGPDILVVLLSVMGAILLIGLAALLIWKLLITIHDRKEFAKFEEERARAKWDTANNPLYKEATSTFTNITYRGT

SMILES	pEC50 (HT-29 (αvβ5))	pEC50 (HUVEC (αvβ3/αvβ5))	inhibit cell adhesion to αv-integrin independent cell adhesion (COL coating) (HUVEC cell line [1])	pEC50 (DAOY (αvβ3))	inhibit cell adhesion to αv-integrin independent cell adhesion (FN coating) (HUVEC cell line [2])	pEC50 (DAOY (αvβ3 /αvβ5))	activity in all cell systems used in the study, in words (HUVEC cell line [3]; all cell systems used, compound 3 has values for HUVEC only)	blocking activity against αvβ5 (HT-29 (αvβ5))	selectivity for the αvβ3 integrin, in words (HUVEC (αvβ3))	biological activity (inhibition of cell adhesion), in words (HUVEC cell line [3])
CC(C)[C@H]1C(=O)N[C@@H](CCCNC(=N)N)C(=O)NCC(=O)N[C@@H](CC(=O)O)C(=O)N[C@H](Cc2ccccc2)C(=O)N1C [Cilengitide, reference compound]	5.65	6.25	none of the compounds, including the reference one (Cilengitide) would inhibit cell adhesion	7.23	none of the compounds, including the reference one (Cilengitide) would inhibit cell adhesion	7.17	–	–	–	–
N=C(N)NCCC[C@@H]1NC(=O)c2csc(n2)CNC(=O)[C@H](CC(=O)O)NC(=O)CNC1=O [Compound 3, Cyclo-[Arg-Gly-Asp-Thz1X-]]	–	4.51	–	–	–	–	inactive	–	–	–
N=C(N)NCCC[C@@H]1NC(=O)c2csc(n2)-c2csc(n2)CNC(=O)[C@H](CC(=O)O)NC(=O)CNC1=O [Compound 4, Cyclo-[Arg-Gly-Asp-Thz2X-]]	4.27	5.13	–	7.09	–	5.24	–	no blocking activity	selective antagonists of the αvβ3 integrin	active
N=C(N)NCCC[C@@H]1NC(=O)c2csc(n2)-c2csc(n2)-c2csc(n2)CNC(=O)[C@H](CC(=O)O)NC(=O)CNC1=O [Compound 5, Cyclo-[Arg-Gly-Asp-Thz3X-]]	4.23	4.20	–	5.73	–	5.17	–	no blocking activity	selective antagonists of the αvβ3 integrin	active
